Where a name gives a salt, the structure may show the parent alone. Read-outs that look alike come from different tables or passages of the source.
Assay: In Vitro Cyclization Assay (disappearance of test compound in buffer, half-life of degradation)
Assay type: physicochemical
Settings: 20° C., approximately 2.2 mM, read-out: Ave (half-life of degradation) (converted)
Description: 1. In Vitro Cyclization Assay
This assay measures the ability of a test compound of the present invention to cyclize in vitro. Also determined is the time required to effect such cyclization.
Test compounds are dissolved (approximately 2.2 mM) in 50 mM phosphate/citrate buffers at a variety of pHs, including pH 7.4 and pH 8.5. The disappearance of the test compounds is observed over time by incubating the solutions at 20° C. and periodically quantifying the concentration of the remaining compound. Since the rate of disappearance follows first order kinetics, the half-life of degradation is calculated from the slope of the regression of natural logarithm transformed data on time. For pH 10 half-life results, CPBG is used: The half-life assay is conducted in phosphate/citrate buffer to test compound stability at pH 6, pH 7.4 and pH 8.5, but citrate/phosphate/glycine buffer is used when compounds were tested at pH 10.

[1] = nominal pH 6, 50 mM phosphate/citrate buffer
[2] = nominal pH 7.4, 50 mM phosphate/citrate buffer
[3] = nominal pH 8.5, 50 mM phosphate/citrate buffer
[4] = nominal pH 10, citrate/phosphate/glycine buffer

| Compound | half-life at 2.2 mM [1] | half-life at 2.2 mM [2] | half-life at 2.2 mM [3] | half-life at 2.2 mM [4] |
| --- | --- | --- | --- | --- |
| CN(CCCN)C(=O)Oc1ccc2c3c1O[C@H]1C(=O)CC[C@H]4[C@@H](C2)N(C)CC[C@]314 [Comparison, Hydromorphone 3-(N-methyl-N-(3-amino)propyl)carbamate Hydrochloride, reference compound] | 3190 h | 224 h | 74 h | 1.33 h |
| CN(CC(F)(F)CN)C(=O)Oc1ccc2c3c1OC1C(=O)CCC4C(C2)N(C)CCC314 (stereo not drawn) [Example 1, Hydromorphone 3-(N-methyl-N-(3-amino-2,2-difluoro)propyl)carbamate Hydrochloride] | 99.1 h | 9.43 h | 6.13 h | 8.04 h |
| CN(CC(F)CN)C(=O)Oc1ccc2c3c1O[C@H]1C(=O)CC[C@H]4[C@@H](C2)N(C)CC[C@]314 (stereo partly drawn) [Example 2, Hydromorphone 3-(N-methyl-N-(3-amino-2-fluoro)propyl)carbamate Hydrochloride] | 334 h | 18.1 h | 5.18 h | 1.68 h |
